From BindingDB's records for doi:10.1016/j.bmcl.2004.05.036 (Abbott Laboratories, 2004)

Experiment: Antiviral activity against HIV protease in absence of human serum

For CCCCN1C(=O)N(Cc2cccc(C(=N)NO)c2)[C@H](Cc2ccccc2)[C@H](O)CN1S(=O)(=O)c1cccc(OC)c1, the EC50 was 30 nM.
